Measurements reported in the NIST ThermoML archive (doi:10.1007/s10765-016-2109-2).

What was measured:
[1] = molar heat capacity at constant volume; settings: Liquid, Vacuum adiabatic calorimetry
[2] = Liquid, isochoric method

CCCCCC[n+]1ccn(C)c1.O=S(=O)([N-]S(=O)(=O)C(F)(F)F)C(F)(F)F
[1]
Settings | molar heat capacity at constant volume [J/K/mol]
325.26 K, Mass density=1344.14 kg/m3 | 609.39
325.39 K, Mass density=1344.14 kg/m3 | 608.49
325.51 K, Mass density=1344.14 kg/m3 | 608.94
325.63 K, Mass density=1344.14 kg/m3 | 608.49
325.75 K, Mass density=1344.14 kg/m3 | 609.83
325.88 K, Mass density=1344.14 kg/m3 | 608.94
326 K, Mass density=1344.14 kg/m3 | 608.04
326.13 K, Mass density=1344.14 kg/m3 | 606.7
326.26 K, Mass density=1344.14 kg/m3 | 608.49
328.58 K, Mass density=1344.14 kg/m3 | 609.83
328.7 K, Mass density=1344.14 kg/m3 | 608.49
328.82 K, Mass density=1344.14 kg/m3 | 607.6
328.94 K, Mass density=1344.14 kg/m3 | 606.25
329.07 K, Mass density=1344.14 kg/m3 | 607.15
329.19 K, Mass density=1344.14 kg/m3 | 609.39
329.31 K, Mass density=1344.14 kg/m3 | 609.83
329.43 K, Mass density=1344.14 kg/m3 | 605.36
333.09 K, Mass density=1344.14 kg/m3 | 612.07
333.21 K, Mass density=1344.14 kg/m3 | 606.25
333.33 K, Mass density=1344.14 kg/m3 | 609.39
333.45 K, Mass density=1344.14 kg/m3 | 613.86
333.57 K, Mass density=1344.14 kg/m3 | 607.6
333.7 K, Mass density=1344.14 kg/m3 | 610.73
333.82 K, Mass density=1344.14 kg/m3 | 613.41
333.94 K, Mass density=1344.14 kg/m3 | 609.83
341.28 K, Mass density=1344.14 kg/m3 | 615.2
341.4 K, Mass density=1344.14 kg/m3 | 610.73
341.52 K, Mass density=1344.14 kg/m3 | 617.44
341.64 K, Mass density=1344.14 kg/m3 | 612.96
341.76 K, Mass density=1344.14 kg/m3 | 620.12
341.88 K, Mass density=1344.14 kg/m3 | 615.65
342 K, Mass density=1344.14 kg/m3 | 614.75
342.12 K, Mass density=1344.14 kg/m3 | 618.78
348.64 K, Mass density=1344.14 kg/m3 | 619.23
348.76 K, Mass density=1344.14 kg/m3 | 617.89
348.88 K, Mass density=1344.14 kg/m3 | 621.91
348.99 K, Mass density=1344.14 kg/m3 | 620.12
349.11 K, Mass density=1344.14 kg/m3 | 618.78
349.23 K, Mass density=1344.14 kg/m3 | 623.7
349.35 K, Mass density=1344.14 kg/m3 | 617.44
349.47 K, Mass density=1344.14 kg/m3 | 622.81
349.58 K, Mass density=1344.14 kg/m3 | 619.68
350.36 K, Mass density=1323.92 kg/m3 | 625.05
350.41 K, Mass density=1323.92 kg/m3 | 624.15
350.53 K, Mass density=1323.92 kg/m3 | 623.26
350.64 K, Mass density=1323.92 kg/m3 | 622.36
350.76 K, Mass density=1323.92 kg/m3 | 625.49
350.88 K, Mass density=1323.92 kg/m3 | 624.6
350.99 K, Mass density=1323.92 kg/m3 | 621.02
351.11 K, Mass density=1323.92 kg/m3 | 621.91
351.23 K, Mass density=1323.92 kg/m3 | 623.26
351.35 K, Mass density=1323.92 kg/m3 | 620.12
351.46 K, Mass density=1323.92 kg/m3 | 621.02
351.58 K, Mass density=1323.92 kg/m3 | 622.36
351.7 K, Mass density=1323.92 kg/m3 | 620.57
351.82 K, Mass density=1323.92 kg/m3 | 621.47
351.93 K, Mass density=1323.92 kg/m3 | 619.68
352.03 K, Mass density=1323.92 kg/m3 | 621.47
360.03 K, Mass density=1323.92 kg/m3 | 626.39
360.19 K, Mass density=1323.92 kg/m3 | 624.15
360.3 K, Mass density=1323.92 kg/m3 | 628.18
360.42 K, Mass density=1323.92 kg/m3 | 622.81
360.53 K, Mass density=1323.92 kg/m3 | 625.05
360.65 K, Mass density=1323.92 kg/m3 | 622.36
360.76 K, Mass density=1323.92 kg/m3 | 623.26
360.88 K, Mass density=1323.92 kg/m3 | 621.02
360.99 K, Mass density=1323.92 kg/m3 | 621.47
361.11 K, Mass density=1323.92 kg/m3 | 622.81
361.22 K, Mass density=1323.92 kg/m3 | 620.57
361.34 K, Mass density=1323.92 kg/m3 | 627.28
365.26 K, Mass density=1323.92 kg/m3 | 624.15
365.35 K, Mass density=1323.92 kg/m3 | 629.52
365.47 K, Mass density=1323.92 kg/m3 | 627.28
365.58 K, Mass density=1323.92 kg/m3 | 625.49
365.69 K, Mass density=1323.92 kg/m3 | 632.65
365.81 K, Mass density=1323.92 kg/m3 | 622.36
365.92 K, Mass density=1323.92 kg/m3 | 629.07
366.04 K, Mass density=1323.92 kg/m3 | 627.28
366.15 K, Mass density=1323.92 kg/m3 | 630.41
366.27 K, Mass density=1323.92 kg/m3 | 623.7
366.38 K, Mass density=1323.92 kg/m3 | 629.97
372.87 K, Mass density=1323.92 kg/m3 | 635.78
372.96 K, Mass density=1323.92 kg/m3 | 634.44
373.07 K, Mass density=1323.92 kg/m3 | 631.76
373.18 K, Mass density=1323.92 kg/m3 | 633.1
373.29 K, Mass density=1323.92 kg/m3 | 636.68
373.41 K, Mass density=1323.92 kg/m3 | 629.07
373.52 K, Mass density=1323.92 kg/m3 | 634.89
373.63 K, Mass density=1323.92 kg/m3 | 629.97
373.74 K, Mass density=1323.92 kg/m3 | 631.31
373.86 K, Mass density=1323.92 kg/m3 | 638.02
373.97 K, Mass density=1323.92 kg/m3 | 636.68
374.08 K, Mass density=1323.92 kg/m3 | 638.92

[2]
Settings | mass density [kg/m3]
325.26 K | 1344.14
350.36 K | 1323.92
